Laboratory results as given in ChEMBL document CHEMBL1201862, “PubChem BioAssay data set” (2004).
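Assay format: 96-well plates, 48-hour exposure. Here, GI50 denotes the concentration required for 50% inhibition of growth.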 The source made the active and inactive calls. No stated cut-off is given here; in the data, active = GI50 up to about 1.1 µM and inactive = higher.

Columns and labels:
Experiment in all cases: growth of human tumour cells (NCI), 48 h
[1] = tested on: RXF 631
[2] = tested on: KM-20L2
[3] = tested on: DMS-273
[4] = tested on: DLD-1
[5] = tested on: Hs-578T
[6] = tested on: MDA-N
[7] = tested on: BT-549
[8] = tested on: T47D
[9] = tested on: MDA-MB-231

Measured: GI50

CCCCNC(=O)OCC(COc1ccccc1OC)OC(=O)NCCCC (stereo not given)
inactive: [1] > 100 µM | [2] > 100 µM | [3] > 100 µM | [4] > 100 µM

CCCCN(CCCC)C(=O)C(=O)CC(=O)/C=C/c1ccccc1
inactive: [1] > 100 µM | [2] > 100 µM | [3] > 100 µM | [4] > 100 µM

CS(=O)(=O)NNS(=O)(=O)c1cccc([N+](=O)[O-])c1
inactive: [1] > 100 µM | [2] > 100 µM | [3] > 100 µM | [4] > 100 µM

C1CCN2CC3CONC3C2C1 (stereo not given)
inactive: [2] > 100 µM | [3] > 100 µM | [4] > 100 µM

CC1(O)C(C)(O)C(C)(O)C1(C)O (stereo not given)
inactive: [2] > 100 µM | [3] > 100 µM | [4] > 100 µM

NCc1cccc(O)c1O
inactive: [1] > 100 µM | [2] > 100 µM | [3] > 100 µM | [4] 90.4 µM

CCOc1ccc(NC(=O)/C(=C\c2ccc(C)cc2)C(C)=O)cc1
inactive: [1] > 100 µM | [2] > 100 µM | [3] > 100 µM | [4] > 100 µM

COc1ccccc1C(=O)Nc1ccc(Cl)c(C(=O)OC(C)C)c1
inactive: [5] > 100 µM | [6] 31.1 µM | [7] 64.9 µM | [8] 20.1 µM | [1] 41.1 µM | [9] > 100 µM | [2] 28.6 µM | [3] 35.3 µM

[N-]=[N+]=NC(c1cn(C2CC(O)C(CO)O2)c(=O)[nH]c1=O)C(Br)I (stereo not given)
inactive: [2] > 100 µM | [3] > 100 µM | [4] > 100 µM

CC1(C)CCc2cc3c(cc2O1)OCCC3=O
inactive: [1] > 100 µM | [2] > 100 µM | [4] > 100 µM

O=c1c2cccnc2ncn1CCN1CCCC1
inactive: [2] > 100 µM | [3] > 100 µM | [4] > 100 µM

CCOC(=O)N1CCc2cc(OC)c(OC)cc2/C1=C\c1ccc(OC)c(OC)c1
inactive: [2] 21.2 µM | [3] 25.5 µM | [4] 37 µM

COc1ccc(C2=Nc3ccccc3SC(C)C2)cc1OC (stereo not given)
inactive: [1] 42.2 µM | [2] 18.8 µM | [3] 16.7 µM

Cc1c[n+]2c3ccccc3c3ccccc3c2s1.[O-][Cl+3]([O-])([O-])[O-]
inactive: [2] 1.33 µM | [3] 5.3 µM | [4] 12 µM

C=C1C[C@]23C[C@@]1(O)CC[C@H]2[C@@]12C=C[C@H](O)[C@@](C)(C(=O)O1)[C@H]2[C@@H]3C(=O)O [GIBBERELLIN A3]
inactive: [2] > 100 µM | [3] > 100 µM | [4] > 100 µM

O=C(c1ccccc1)c1c(CC(O)c2ccccn2)n(C(=O)c2ccccc2)c2ccccc12 (stereo not given)
inactive: [2] 18.5 µM | [3] 23.6 µM | [4] 26.9 µM

CC(C)C.C[N+](C)(C)C.OC(c1ccccc1)(C(F)(F)F)C(F)(F)F.OC(c1ccccc1)(C(F)(F)F)C(F)(F)F.[SiH3-]
inactive: [1] 2.58 µM | [2] 2.29 µM | [3] 10.2 µM | [4] 2.77 µM

CCCCCCCCCCCc1noc2c1C(=O)C(O)CC2 (stereo not given)
inactive: [1] 17.6 µM | [2] 17.2 µM | [3] 16.8 µM

COc1ccc2c(C3(O)CCNCC3)c[nH]c2c1
inactive: [1] > 100 µM | [2] > 100 µM | [3] > 100 µM | [4] > 100 µM

CC1C=C(OC(=O)c2ccccc2)C(=O)C(n2cc(F)c(=O)n(C(=O)c3ccccc3)c2=O)O1 (stereo not given)
inactive: [1] 52 µM | [2] 32.1 µM | [3] 37.4 µM | [4] 41.6 µM

O=C(/C(=N/Nc1ccccc1)c1ccc([N+](=O)[O-])cc1)c1ccc([N+](=O)[O-])cc1
inactive: [2] > 100 µM | [3] > 100 µM | [4] > 100 µM

NC(CCc1ncc(C(=O)O)s1)C(=O)O (stereo not given)
inactive: [1] > 100 µM | [4] > 100 µM

Cc1cccc(NC(=O)/C=C/c2ccc(N(CCC#N)CCC#N)cc2C)c1
inactive: [1] > 100 µM | [2] > 100 µM | [3] > 100 µM | [4] > 100 µM

COc1ccc2c(=O)c(C)c(-c3ccccc3)oc2c1CN(C)C [DIMEFLINE]
inactive: [2] 97.7 µM | [3] > 100 µM | [4] > 100 µM
